Measured values from patent US10004724B2, “Compounds alpha v beta 6 integrin antagonists” (GlaxoSmithKline Intellectual Property Development Limited, priority 2014, dated 2018).

Tests used:
Type in all cases: cell-based
K562-αvβ3 (LAP-b1) = biological target: T1, K562-αvβ3 (LAP-b1) (Homo sapiens, UniProt P05106+P06756); assay: Cell Adhesion Assay αvβ3; conditions: K562-αvβ3 cells, ligand LAP-b1, 2 mM MgCl2, BCECF-AM fluorescence; read-out: mean affinity (pIC50) αvβ3 (converted)
T1 construct: expressed in transfected cells; host or cells: K562
Method: (§1) The divalent cation used to facilitate adhesion was 2 mM MgCl2. Adhesion was quantified by cell labelling with the fluorescent dye BCECF-AM (Life Technologies), where cell suspensions at 3×10^6 cells/mL were incubated with 0.33 mL/mL of 30 mM BCECF-AM at 37° C. for 10 minutes, before dispensing into the assay plate. At the assay conclusion cells that adhered were lysed using 50 μL/well of 0.5% Triton X-100 in H2O to release fluorescence. Fluorescence intensity was detected using an Envision® plate reader (Perkin Elmer).

K562-αvβ5 (Vitronectin) = biological target: T2, K562-αvβ5 (Vitronectin) (Homo sapiens, UniProt P06756+P18084); assay: Cell Adhesion Assay αvβ5; conditions: K562-αvβ5 cells, ligand Vitronectin, 2 mM MgCl2, BCECF-AM fluorescence; read-out: mean affinity (pIC50) αvβ5 (converted)
T2 construct: expressed in transfected cells; host or cells: K562
Method: as §1

K562-αvβ8 (LAP-b1) = biological target: T3, K562-αvβ8 (LAP-b1) (Homo sapiens, UniProt P06756+P26012); assay: Cell Adhesion Assay αvβ8; conditions: K562-αvβ8 cells, ligand LAP-b1, 2 mM MgCl2, BCECF-AM fluorescence; read-out: mean affinity (pIC50) αvβ8 (converted)
T3 construct: expressed in transfected cells; host or cells: K562
Method: as §1

K562-αvβ6 (LAP-b1) = biological target: T4, K562-αvβ6 (LAP-b1) (Homo sapiens, UniProt P06756+P18564); assay: Cell Adhesion Assay αvβ6; conditions: K562-αvβ6 cells, ligand LAP-b1, 2 mM MgCl2, BCECF-AM fluorescence; read-out: mean affinity (pIC50) αvβ6 (converted)
T4 construct: expressed in transfected cells; host or cells: K562
Method: as §1

αvβ1 = αvβ1 (Homo sapiens, UniProt P05556+P06756); assay: Cell Adhesion Assay αvβ1; conditions: cell line and ligand for αvβ1 not listed in method, read-out: mean affinity (pIC50) αvβ1 (converted)

T4 sequence (P06756 31-889 limits assumed): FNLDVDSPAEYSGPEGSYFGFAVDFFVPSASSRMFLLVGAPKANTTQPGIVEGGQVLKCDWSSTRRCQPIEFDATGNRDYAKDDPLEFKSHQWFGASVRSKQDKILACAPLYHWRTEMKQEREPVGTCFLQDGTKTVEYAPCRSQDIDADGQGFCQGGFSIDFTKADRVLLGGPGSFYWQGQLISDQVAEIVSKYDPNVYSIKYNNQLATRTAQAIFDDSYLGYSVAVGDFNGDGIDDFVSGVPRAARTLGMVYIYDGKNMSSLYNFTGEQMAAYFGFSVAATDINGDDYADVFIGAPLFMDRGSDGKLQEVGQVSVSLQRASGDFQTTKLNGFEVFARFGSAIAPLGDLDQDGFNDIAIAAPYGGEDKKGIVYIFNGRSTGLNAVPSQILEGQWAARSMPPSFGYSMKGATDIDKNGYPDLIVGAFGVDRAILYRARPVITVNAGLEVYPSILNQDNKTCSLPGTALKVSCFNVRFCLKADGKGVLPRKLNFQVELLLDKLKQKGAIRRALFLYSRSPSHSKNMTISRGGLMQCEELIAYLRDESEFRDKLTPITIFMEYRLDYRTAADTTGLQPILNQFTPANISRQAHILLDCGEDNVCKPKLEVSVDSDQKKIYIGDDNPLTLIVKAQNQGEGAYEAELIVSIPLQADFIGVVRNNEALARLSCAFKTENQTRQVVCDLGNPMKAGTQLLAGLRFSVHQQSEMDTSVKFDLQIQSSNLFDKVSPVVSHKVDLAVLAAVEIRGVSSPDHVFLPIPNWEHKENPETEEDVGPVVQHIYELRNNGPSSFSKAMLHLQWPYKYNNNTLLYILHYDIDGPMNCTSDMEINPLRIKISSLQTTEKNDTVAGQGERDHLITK
T4 sequence (P06756 891-1048 limits assumed): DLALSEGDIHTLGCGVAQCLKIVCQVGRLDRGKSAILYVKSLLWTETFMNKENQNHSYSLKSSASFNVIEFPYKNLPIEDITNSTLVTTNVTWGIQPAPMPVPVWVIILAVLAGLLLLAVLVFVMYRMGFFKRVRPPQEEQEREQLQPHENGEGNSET
T4 sequence (P18564 22-788): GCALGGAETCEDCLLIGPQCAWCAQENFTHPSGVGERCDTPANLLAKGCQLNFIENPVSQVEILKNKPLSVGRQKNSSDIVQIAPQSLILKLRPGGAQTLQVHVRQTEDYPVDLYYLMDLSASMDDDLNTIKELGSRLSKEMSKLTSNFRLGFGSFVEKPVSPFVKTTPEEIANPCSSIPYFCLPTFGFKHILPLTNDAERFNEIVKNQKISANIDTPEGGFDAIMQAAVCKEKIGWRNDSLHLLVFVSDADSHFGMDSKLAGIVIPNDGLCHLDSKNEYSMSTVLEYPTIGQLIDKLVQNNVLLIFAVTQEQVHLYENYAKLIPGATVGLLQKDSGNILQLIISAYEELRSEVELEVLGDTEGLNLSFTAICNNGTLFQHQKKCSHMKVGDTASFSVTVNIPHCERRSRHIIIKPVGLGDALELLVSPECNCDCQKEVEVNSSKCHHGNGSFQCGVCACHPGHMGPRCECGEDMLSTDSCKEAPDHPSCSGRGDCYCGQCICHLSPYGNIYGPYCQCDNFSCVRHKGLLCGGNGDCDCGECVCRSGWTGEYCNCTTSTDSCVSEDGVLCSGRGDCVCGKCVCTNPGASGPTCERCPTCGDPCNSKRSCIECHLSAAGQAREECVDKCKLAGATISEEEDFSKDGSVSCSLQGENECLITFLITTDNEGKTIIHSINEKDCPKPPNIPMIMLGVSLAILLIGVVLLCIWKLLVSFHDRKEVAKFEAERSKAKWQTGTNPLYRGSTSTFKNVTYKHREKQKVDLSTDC
T2 sequence (P06756 31-889 limits assumed): as the sequence (P06756 31-889 limits assumed) above
T2 sequence (P06756 891-1048 limits assumed): as the sequence (P06756 891-1048 limits assumed) above
T2 sequence (P18084 24-799): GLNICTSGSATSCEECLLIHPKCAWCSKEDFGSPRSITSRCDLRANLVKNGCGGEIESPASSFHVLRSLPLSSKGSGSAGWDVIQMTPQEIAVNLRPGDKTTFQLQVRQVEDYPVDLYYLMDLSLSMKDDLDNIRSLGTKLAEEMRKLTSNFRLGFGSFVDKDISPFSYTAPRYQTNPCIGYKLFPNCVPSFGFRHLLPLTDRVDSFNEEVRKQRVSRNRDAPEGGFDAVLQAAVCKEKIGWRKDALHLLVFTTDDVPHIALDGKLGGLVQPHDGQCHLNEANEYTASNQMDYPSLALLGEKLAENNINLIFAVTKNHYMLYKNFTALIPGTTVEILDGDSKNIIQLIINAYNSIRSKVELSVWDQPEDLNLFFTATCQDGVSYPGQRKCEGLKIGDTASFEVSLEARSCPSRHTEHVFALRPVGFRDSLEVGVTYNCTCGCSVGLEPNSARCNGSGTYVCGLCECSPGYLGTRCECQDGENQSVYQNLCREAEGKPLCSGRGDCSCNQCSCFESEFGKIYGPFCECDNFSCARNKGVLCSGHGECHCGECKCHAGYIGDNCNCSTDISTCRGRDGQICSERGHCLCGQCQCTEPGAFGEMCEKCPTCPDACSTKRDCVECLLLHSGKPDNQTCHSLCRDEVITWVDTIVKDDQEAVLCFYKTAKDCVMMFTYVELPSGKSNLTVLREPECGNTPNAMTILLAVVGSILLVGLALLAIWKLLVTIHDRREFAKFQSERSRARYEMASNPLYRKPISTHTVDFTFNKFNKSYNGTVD
T3 sequence (P06756 31-889 limits assumed): as the sequence (P06756 31-889 limits assumed) above
T3 sequence (P06756 891-1048 limits assumed): as the sequence (P06756 891-1048 limits assumed) above
T3 sequence (P26012 43-769): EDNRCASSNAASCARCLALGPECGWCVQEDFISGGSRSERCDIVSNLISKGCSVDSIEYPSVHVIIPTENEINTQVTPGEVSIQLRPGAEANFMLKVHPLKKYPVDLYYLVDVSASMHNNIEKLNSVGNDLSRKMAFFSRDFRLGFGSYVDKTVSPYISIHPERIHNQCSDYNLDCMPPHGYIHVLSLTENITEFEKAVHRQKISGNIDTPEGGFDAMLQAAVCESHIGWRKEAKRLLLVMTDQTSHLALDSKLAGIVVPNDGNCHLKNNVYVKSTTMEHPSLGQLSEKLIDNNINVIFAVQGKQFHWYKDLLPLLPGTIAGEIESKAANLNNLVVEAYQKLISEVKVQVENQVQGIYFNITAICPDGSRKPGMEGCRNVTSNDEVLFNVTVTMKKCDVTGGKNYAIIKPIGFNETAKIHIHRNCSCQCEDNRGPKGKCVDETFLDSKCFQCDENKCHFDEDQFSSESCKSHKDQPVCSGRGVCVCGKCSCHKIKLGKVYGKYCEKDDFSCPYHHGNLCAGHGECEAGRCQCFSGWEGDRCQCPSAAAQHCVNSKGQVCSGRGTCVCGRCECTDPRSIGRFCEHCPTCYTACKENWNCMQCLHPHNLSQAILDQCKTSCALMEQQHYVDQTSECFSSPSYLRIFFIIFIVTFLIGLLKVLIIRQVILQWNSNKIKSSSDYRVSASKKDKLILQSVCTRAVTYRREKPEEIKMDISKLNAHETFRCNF
T1 sequence (P06756 31-889 limits assumed): as the sequence (P06756 31-889 limits assumed) above
T1 sequence (P06756 891-1048 limits assumed): as the sequence (P06756 891-1048 limits assumed) above
T1 sequence (P05106 27-788): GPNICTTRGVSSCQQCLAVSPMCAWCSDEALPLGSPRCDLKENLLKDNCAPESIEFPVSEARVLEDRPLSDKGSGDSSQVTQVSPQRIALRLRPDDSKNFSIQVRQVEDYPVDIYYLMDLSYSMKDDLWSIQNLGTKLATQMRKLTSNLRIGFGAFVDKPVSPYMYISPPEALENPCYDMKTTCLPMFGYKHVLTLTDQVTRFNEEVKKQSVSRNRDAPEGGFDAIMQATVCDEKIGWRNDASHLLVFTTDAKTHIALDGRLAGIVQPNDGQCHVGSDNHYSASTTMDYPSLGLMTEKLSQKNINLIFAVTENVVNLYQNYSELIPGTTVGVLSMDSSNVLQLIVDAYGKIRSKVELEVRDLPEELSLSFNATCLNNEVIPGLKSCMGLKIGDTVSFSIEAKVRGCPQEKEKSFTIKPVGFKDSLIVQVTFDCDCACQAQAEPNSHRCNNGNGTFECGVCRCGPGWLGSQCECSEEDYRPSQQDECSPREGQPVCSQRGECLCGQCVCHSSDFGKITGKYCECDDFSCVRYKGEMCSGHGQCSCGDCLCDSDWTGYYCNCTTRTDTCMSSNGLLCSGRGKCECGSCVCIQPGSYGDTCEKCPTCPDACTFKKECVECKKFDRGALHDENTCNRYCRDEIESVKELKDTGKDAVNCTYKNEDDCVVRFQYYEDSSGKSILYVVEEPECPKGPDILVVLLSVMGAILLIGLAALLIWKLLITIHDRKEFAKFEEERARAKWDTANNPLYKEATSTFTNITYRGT

Row | IC50 (K562-αvβ3 (LAP-b1)) | IC50 (K562-αvβ5 (Vitronectin)) | IC50 (K562-αvβ8 (LAP-b1)) | IC50 (K562-αvβ6 (LAP-b1)) | IC50 (αvβ1) | Compound
1 | 2000 nM | 200 nM | 25.1 nM | 10 nM |  | Cc1cc(-c2cc([C@H](CC(=O)O)CN3CC[C@@H](CCc4ccc5c(n4)NCCC5)C3)cc(N3CCOCC3)c2)[nH]n1 [Example 7, (S)-3-(3-(3-Methyl-1H-pyrazol-5-yl)-5-morpholinophenyl)-4-((R)-3-(2-(5,6,7,8-tetrahydro-1,8-naphthyridin-2-yl)ethyl)pyrrolidin-1-yl)butanoic acid]
2 | 3980 nM | 63.1 nM | 5.01 nM | 5.01 nM |  | O=C(O)C[C@H](CN1CC[C@@H](CCc2ccc3c(n2)NCCC3)C1)c1cc(-c2cn[nH]c2)cc(N2CCOCC2)c1 [Example 8, (S)-3-(3-Morpholino-5-(1H-pyrazol-4-yl)phenyl)-4-((R)-3-(2-(5,6,7,8-tetrahydro-1,8-naphthyridin-2-yl)ethyl)pyrrolidin-1-yl)butanoic acid]

Continued, compound first:

Row | Compound | IC50 (K562-αvβ3 (LAP-b1)) | IC50 (K562-αvβ5 (Vitronectin)) | IC50 (K562-αvβ8 (LAP-b1)) | IC50 (K562-αvβ6 (LAP-b1)) | IC50 (αvβ1)
3 | O=C(O)C[C@H](CN1CC[C@@H](CCc2ccc3c(n2)NCCC3)C1)c1cc(-c2ccn[nH]2)cc(N2CCOCC2)c1 [Example 6, (S)-3-(3-Morpholino-5-(1H-pyrazol-5-yl)phenyl)-4-((R)-3-(2-(5,6,7,8-tetrahydro-1,8-naphthyridin-2-yl)ethyl)pyrrolidin-1-yl)butanoic acid] | 1260 nM | 50.1 nM | 7.94 nM | 3.16 nM | 10 nM
4 | Cc1ccn(-c2cc(C(CC(=O)O)CN3CC[C@@H](CCc4ccc5c(n4)NCCC5)C3)cc(N3CCOCC3)c2)n1 (mixture of isomers) [Example 4, 3-(3-(3-methyl-1H-pyrazol-1-yl)-5-morpholinophenyl)-4-((R)-3-(2-(5,6,7,8-tetrahydro-1,8-naphthyridin-2-yl)ethyl)pyrrolidin-1-yl)butanoic acid] | 6310 nM | 158 nM | 31.6 nM |  | 
5 | O=C(O)C[C@H](CN1CC[C@@H](CCc2ccc3c(n2)NCCC3)C1)c1cc(N2CCOCC2)cc(-n2cccn2)c1 [Example 3, (S)-3-(3-morpholino-5-(1H-pyrazol-1-yl)phenyl)-4-((R)-3-(2-(5,6,7,8-tetrahydro-1,8-naphthyridin-2-yl)ethyl)pyrrolidin-1-yl)butanoic acid] | 3980 nM | 200 nM | 15.8 nM | 3.16 nM | 50.1 nM
